The values that follow come from patent US7419984B2, “Pyrimidines and uses thereof” (Cell Therapeutics, Inc., priority 2002, dated 2008).

Broadly, the IC50 is the concentration needed to halve the response being measured.

The target in this assay is T1, human LPAAT-β (Homo sapiens, UniProt O15120).
T1 construct: the full-length human LPAAT-β cDNA was amplified by PCR; poly-histidine tag (N); made in house; host or cells: Sf9 insect cells (baculovirus, pFastBac HTc); the membrane fraction was used as the enzyme
T1 sequence (O15120 24-278): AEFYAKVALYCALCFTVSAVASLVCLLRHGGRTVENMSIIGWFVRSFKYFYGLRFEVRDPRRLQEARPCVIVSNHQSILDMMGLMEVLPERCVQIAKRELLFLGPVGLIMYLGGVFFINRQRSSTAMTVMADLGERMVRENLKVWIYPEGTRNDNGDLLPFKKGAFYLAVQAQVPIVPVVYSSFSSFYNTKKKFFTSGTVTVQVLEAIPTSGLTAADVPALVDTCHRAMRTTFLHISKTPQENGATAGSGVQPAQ
The experiment in a line: LPAAT-β cell-free assay. To be noted: Sf9 cell membrane overexpressing recombinant LPAAT-β. It counts as biochemical. The method in brief:
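Membranes from Sf9 cells expressing His/myc-tagged full-length human LPAAT-β were used in HEPES-saline pH 7.5 with 1 mg/ml BSA. Compound was added from a 200 μM DMSO stock, and reaction with 18:1-CoA and sn-1-18:1 lysoPA (1 mM stocks) ran 25 min at RT. Released CoA was detected with DTNB at 405 nm; a radiometric variant used 200 μM [14C]18:1-CoA and 200 μM lysoPA.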

For `CCOc1ccc(Cl)cc1-c1cc(Nc2ccc(C)cc2)nc(N)n1` [Example 53, 6-(5-Chloro-2-ethoxy-phenyl)-N*4*-p-tolyl-pyrimidine-2,4-diamine], the IC50 came to 95 nM.

Consider `Nc1nc(Nc2ccc(Br)cc2)cc(-c2cc(Cl)ccc2Cl)n1` [Example 14, N*4*-(4-Bromo-phenyl)-6-(2,5-dichloro-phenyl)-pyrimidine-2,4-diamine], for which the IC50 was determined as 26 nM.

For `CCOc1ccc(Br)cc1-c1cc(Nc2ccc(C)c(C)c2)nc(N)n1` [Example 132, 6-(5-Bromo-2-ethoxy-phenyl)-N*4*-(3,4-dimethyl-phenyl)-pyrimidine-2,4-diamine], the concentration for half-maximal inhibition (IC50) is 140 nM.

With `Cc1ccc(Cl)cc1-c1cc(Nc2ccc(CO)cc2)nc(N)n1` [Example 33, {4-[2-Amino-6-(5-chloro-2-methyl-phenyl)-pyrimidin4-ylamino]-phenyl}-methanol], the IC50 came out at 95 nM.

As for `CCOc1ccc(Br)cc1-c1cc(Nc2ccc(C(=O)c3ccccc3)cc2)nc(N)n1` [Example 59, {4-[2-Amino-6-(5-bromo-2-ethoxy-phenyl)-pyrimidin4-ylamino]-phenyl}-phenyl-methanone], the 50% inhibitory concentration (IC50) was found to be 210 nM.

Turning to `COc1ccc(Cl)cc1-c1cc(Nc2ccc(C(F)(F)F)cc2)nc(N)n1` [Example 4, 6-(5-Chloro-2-methoxy-phenyl)-N*4*-(4-trifluoromethylphenyl)-pyrimidine-2,4-diamine], the IC50 amounted to 88 nM.

For `CCOc1ccc(Cl)cc1-c1cc(Nc2ccc(C#N)cc2)nc(N)n1` [Example 57, 4-[2-Amino-6-(5-chloro-2-ethoxy-phenyl)-pyrimidin4-ylamino]-benzonitrile], the IC50 turned out to be 22 nM.

Turning to `COc1ccc(Br)cc1-c1cc(Nc2ccc(C(F)(F)F)cc2)nc(N)n1` [Example 150, 6-(5-Bromo-2-methoxy-phenyl)-N*4*-(4-trifluoromethyl-phenyl)-pyrimidine-2,4-diamine], the IC50 amounted to 100 nM.

In the case of `CCc1cccc(Nc2cc(-c3cc(Cl)ccc3C)nc(N)n2)c1` [Example 115, 6-(5-Chloro-2-methyl-phenyl)-N*4*-(3-ethyl-phenyl)-pyrimidine-2,4-diamine], the half-inhibitory concentration (IC50) is 210 nM.

`COc1ccc(Cl)cc1-c1cc(Nc2ccc([N+](=O)[O-])cc2)nc(N)n1` [Example 11, 6-(5-Chloro-2-methoxy-phenyl)-N*4*-(4-nitro-phenyl)-pyrimidine-2,4-diamine]: the IC50 is 14 nM.

With `CCc1ccc(Cl)cc1-c1cc(Nc2ccc([N+](=O)[O-])cc2)nc(N)n1` [Example 169, 6-(5-Chloro-2-ethyl-phenyl)-N*-4*-(4-nitro-phenyl)-pyrimidine-2,4-diamine], the IC50 amounted to 93 nM.

For the compound `CCOc1ccc(Br)cc1-c1cc(Nc2ccc(C(F)(F)F)nc2)nc(N)n1` [Example 128, 6-(5-bromo-2-ethoxyphenyl)-N*4*-(6-trifluoromethylpyridin-3-yl)-pyrimidine-2,4-diamine], the IC50 came out at 190 nM.

On to `COc1ccc(Cl)cc1-c1cc(Nc2ccc(C#N)cc2)nc(N)n1` [Example 45, 4-[2-Amino-6-(5-chloro-2-methoxy-phenyl)-pyrimidin-4-ylamino]-benzonitrile], for which the IC50 was 33 nM.

Take `Cc1ccc(Cl)cc1-c1cc(Nc2ccc(CCCO)cc2)nc(N)n1` [Example 109, 3-{4-[2-Amino-6-(5-Chloro-2-methyl-phenyl)-pyrimidin-4-ylamino]-phenyl}-propan-1-ol]: the IC50 is 850 nM.

Turning to `Cc1ccc(Cl)cc1-c1cc(Nc2ccc(CCCCO)cc2)nc(N)n1` [Example 110, 4-{4-[2-Amino-6-(5-Chloro-2-methyl-phenyl)-pyrimidin-4-ylamino]-phenyl}-butan-1-ol], the IC50 was determined as 210 nM.

With `Cc1ccc(Cl)cc1-c1cc(Nc2ccc(C(F)(F)F)cc2)nc(N)n1` [Example 29, 6-(5-Chloro-2-methyl-phenyl)-N*4*-(4-trifluoromethyl-phenyl)-pyrimidine-2,4-diamine], the IC50 was 134 nM.

Consider `COC(=O)c1ccc(Nc2cc(-c3cc(Cl)ccc3Cl)nc(N)n2)cc1` [Example 21, 4-[2-Amino-6-(2,5-dichloro-phenyl)-pyrimidin-4-yl-amino]-benzoic acid methyl ester], for which the IC50 stood at 330 nM.

`Nc1nc(Nc2ccc(C(F)(F)F)cc2)cc(-c2cc(Cl)cc(Cl)c2Cl)n1` [Example 102, 6-(2,3,5-trichloro-phenyl) N*4*-(4-trifluoromethyl-phenyl)-pyrimidine-2,4-diamine]: the IC50 was 500 nM.

`Nc1nc(Nc2ccc(Cl)cc2)cc(-c2cc(Cl)cc(Cl)c2Cl)n1` [Example 98, N*4*-(4-Chloro-phenyl)-6-(2,3,5-trichloro-phenyl)-pyrimidine-2,4-diamine]: the half-maximal inhibitory concentration (IC50) was found to be 91 nM.

In the case of `CCOc1ccc(Br)cc1-c1cc(Nc2ccc(Br)cc2)ncn1` [Example 181, [6-(5-Bromo-2-ethoxy-phenyl)-pyrimidin-4-yl]-(4-bromo-phenyl)-amine], the IC50 amounted to 40 nM.

Turning to `Nc1nc(Nc2ccc(Cl)cc2)cc(-c2ccccc2Oc2ccccc2)n1` [Example 152, N*4*-(4-Chloro-phenyl)-6-(2-phenoxy-phenyl)-pyrimidin-2,4-diamine], the IC50 was 240 nM.

For `Nc1nc(Nc2ccc(C(F)(F)F)cc2)cc(-c2cc(Cl)cc(Cl)c2)n1` [Example 112, 6-(3,5-Dichloro-phenyl)-N*4*-(4-trifuoromethyl-phenyl)-pyrimidine-2,4-diamine], the IC50 is 640 nM.

With `Cc1ccc(Br)cc1-c1cc(Nc2ccc([N+](=O)[O-])cc2)nc(N)n1` [Example 88, 6-(5-Bromo-2-methyl-phenyl)-N*4*-(4-nitro-phenyl)-pyrimidine-2,4-diamine], the IC50 was 21 nM.

Turning to `COc1ccc(Cl)cc1-c1nc(N)cc(Nc2ccc3cn[nH]c3c2)n1` [Example 37, 2-(5-Chloro-2-methoxy-phenyl)-N-(1H-indazol-6-yl)-pyrimidine4,6-diamine], the IC50 was determined as 2100 nM.

In the case of `COc1ccc(Cl)cc1-c1cc(Nc2ccc3ncsc3c2)nc(N)n1` [Example 8, N*4*-Benzothiazol-6-yl-6-(5-chloro-2-methoxy-phenyl)-pyrimidine-2,4-diamine], the IC50 came out at 270 nM.

Take `Cc1ccc(Cl)cc1-c1cc(Nc2ccc(Br)cc2)nc(N)n1` [Example 30, N*4*-(4-Bromo-phenyl)-6-(5-chloro-2-methyl-phenyl)-pyrimidine-2,4-diamine]: the IC50 turned out to be 34 nM.

For the compound `Nc1nc(Nc2ccc(C(F)(F)F)cc2)cc(-c2cc(Br)ccc2Cl)n1` [Example 189, 6-(5-Bromo-2-chloro-phenyl)-N*4*-(4-trifluoromethyl-phenyl)-pyrimidine-2,4-diamine], the IC50 was determined as 79 nM.

Regarding `CCOc1ccc(Br)cc1-c1cc(Nc2ccc(C(C)=NO)cc2)nc(N)n1` [Example 130, 1-{4-[2-Amino-6-(5-bromo-2-ethoxy-phenyl)-pyrimidin4-ylamino]-phenyl}-ethanone-oxime], the IC50 is 84 nM.

In the case of `Cc1ccc(Nc2cc(-c3cc(Cl)ccc3Cl)nc(N)n2)cc1` [Example 15, 6-(2,5-Dichloro-phenyl)-N*4*-p-tolyl-pyrimidine-2,4-diamine], the IC50 was found to be 50 nM.

Turning to `Cc1ccc(Cl)cc1-c1cc(Nc2ccc(C(CO)CO)cc2)nc(N)n1` [Example 116, 2-{4-[2-Amino-6-(5-chloro-2-methyl-phenyl)-pyrimidin-2-yl-amino]-phenyl}-propane-1,3-diol], the IC50 was 1100 nM.

As for `CCOc1ccc(Br)cc1-c1cc(Nc2ccc([N+](=O)[O-])cc2)nc(N)n1` [Example 133, 6-(5-Bromo-2-ethoxy-phenyl)-N*4*-(4-nitro-phenyl)-pyrimidine-2,4-diamine], the IC50 was 15 nM.

As to `COc1ccc(C)c(-c2cc(Nc3ccc(Cl)cc3)nc(N)n2)c1` [Example 71, N*4*-(4-Chloro-phenyl)-6-(5-methoxy-2-methyl-phenyl)-pyrimidine-2,4-diamine], the IC50 amounted to 210 nM.

Regarding `Cc1ccc(Br)cc1-c1cc(Nc2ccc(Cl)cc2)nc(N)n1` [Example 84, 6-(5-Bromo-2-methyl-phenyl)-N*4*-(4-chloro-phenyl)-pyrimidine-2,4-diamine], the IC50 was found to be 31 nM.

In the case of `CCc1ccc(Cl)cc1-c1cc(Nc2ccc(Br)cc2)nc(N)n1` [Example 163, N*4*-(4-Bromo-phenyl)-6-(5-chloro-2-ethyl-phenyl)-pyrimidine-2,4-diamine], the concentration for half-maximal inhibition (IC50) stood at 310 nM.

On to `Nc1nc(Nc2ccc(Cl)c(C(F)(F)F)c2)cc(-c2cc(Cl)ccc2Cl)n1` [Example 179, N*4*-(4-Chloro-3-trifluoromethyl-phenyl)-6-(2,5-dichloro-phenyl)-pyrimidin-2,4-diamine], for which the IC50 was found to be 180 nM.

For `COc1ccc(Nc2cc(-c3cc(Cl)ccc3OC)nc(N)n2)cc1` [Example 7, 6-(5-Chloro-2-methoxy-phenyl)-N*4*-(4-methoxy-phenyl)-pyrimidine-2,4-diamine], the IC50 turned out to be 410 nM.

Consider `Nc1nc(Nc2ccc(C(F)(F)F)cc2)cc(-c2cc(Br)ccc2OCc2ccccc2)n1` [Example 153, 6-(2-Benzyloxy-5-bromo-phenyl)-N*4*-(4-trifluoromethyl-phenyl)-pyrimidine-2,4-diamine], for which the half-maximal inhibitory concentration (IC50) was determined as 6 nM.

In the case of `Nc1nc(Nc2ccc(C(F)(F)F)cc2)cc(-c2cc(Cl)ccc2Cl)n1` [Example 18, 6-(2,5-Dichloro-phenyl)-N*4*-(4-trifuoromethyl-phenyl)-pyrimidine-2,4-diamine], the IC50 was 82 nM.
